Data as given in PMC12256496, “An advancement in developmental and reproductive toxicity (DART) risk assessment: evaluation of a bioactivity and exposure-based NAM toolbox” (Frontiers in Toxicology, 2025).
Values joined by “and” are separate entries in the source; they are usually repeats but may differ in a detail not shown here. Equal entries are not always repeated. Where two headings read alike, the source gives them in different places.

What was measured:
[1] = skin absorption / systemic exposure dose for dermal exposure (PBK parameter); type: in vitro ADME
From the text: Where a SED (systemic exposure dose) was reported systemic exposure from a dermal administration was modelled as a slow intravenous infusion of the SED, which corrects the applied dose for the rate of skin absorption (%). Where no SED was available dermal exposure route was predicted by the dermal module in GastroPlus® administration.

[2] = renal clearance, Fup*GFR (PBK parameter); settings: method Fup*GFR
[3] = Bioactivity exposure ratio (BER): minimum platform PoD / estimated Cmax; settings: low-risk exposure scenario of the compound
[4] = Human in vivo PK data: concentration-dose ratio (CDR) and toxicokinetic variability factor (TKVF); design: 95% percentile (Conc-dose-ratio): unit not given here;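 further: Literature-pooled human in vivo PK data, plasma, serum or cord blood concentrations per daily dose, weighted by study population size across non-pregnant, pregnant and fetal groups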
[5] = system: human developmental and reproductive toxicity; settings: cited from earlier work
[6] = system: developmental or reproductive toxicity in animal or human; settings: cited from earlier work
[7] = cited from earlier work; for MoS: existent consumer risk assessment for the cosmetic use scenario, ref SCCS / SCCP / SCCNFP; for ADI: ref FSCJ, EFSA, SCF, JMPR as named in the cell
rats = settings: ref Supplementary Data Sheet 1, cited from earlier work
[8] = ref Supplementary Data Sheet 1, cited from earlier work
[9] = Solubility pH 7, cited from earlier work
[10] = hepatic intrinsic clearance, CLint (PBK parameter); type: in vitro ADME
[11] = evidence of developmental or reproductive toxicity in animal or human, irrespective of exposure/dose, ref Supplementary Data Sheet 1
[12] = Non-Pregnant population (reference)
[13] = Non-Pregnant population, TKVF95 = p95 / weighted mean concentration-dose ratio
[14] = Non-Pregnant, combined (oral+IV)
[15] = Foetus, oral, combined (tretinoin, retinyl palmitate, dietary retinoids)
[16] = Non-Pregnant, dermal, formulation radiolabelled tretinoin
[17] = Non-Pregnant, oral, combined (tretinoin, retinyl palmitate, dietary retinoids)
[18] = Pregnant, oral, combined (tretinoin, retinyl palmitate, dietary retinoids)
[19] = Pregnant population, TKVF95 = p95 / weighted mean concentration-dose ratio
[20] = Pregnant population (reference)
[21] = two multigeneration rat studies

## CC(C)(CO)C(O)C(=O)NCCCO (stereo not drawn) [Panthenol]
[1]; optimised based on [12]
  Diffusivity Stratum Corneum: 2.29E-13 cm^2/s
  Partition Coefficient Stratum Corneum/Water: 1.96
[2]
  Renal Clearance: 6.348 L/h
[3]
  BER: < 1

## COc1ccc(C(=O)c2ccccc2)c(O)c1 [2-Hydroxy-4-methoxybenzophenone]
[4]; Non-Pregnant, dermal
  95% percentile (Conc-dose-ratio): 0.000717
  Mean Conc-dose -ratio: 0.00025 uM/(mg/day]
  TKVF: 2.84
[5]; Cosmetic, 6% in sunscreen, dermal, ref Supplementary Data Sheet 1
  Exposure risk (DART risk classification): Low Risk
[6]; [11]
  DART Hazard Call: Non Toxic
[7]
  MoS: Used safely in cosmetic products. Existent consumer risk assessment from the SCCS. MoS 38.

## O=P1(N(CCCl)CCCl)NCCCO1 (stereo not drawn) [Cyclophosphamide]
[4]; [12]
  CDR fold difference to non-pregnant: 1.00
[4]; [13]
  TKVF: 3.15
[4]; [14]
  95% percentile (Conc-dose-ratio): 0.09
  Fold Difference to non-pregnant: 1.00
  Mean Conc-dose -ratio: 0.030 uM/(mg/day]
  TKVF: 3.15
[4]; Pregnant population
  CDR fold difference to non-pregnant: 2.85
[4]; Pregnant, IV
  Fold Difference to non-pregnant: 2.85
  Mean Conc-dose -ratio: 0.084 uM/(mg/day]
[5]; Pharmaceutical, 60 mg/daily, oral, ref Supplementary Data Sheet 1
  Exposure risk (DART risk classification): High Risk
[6]; [11]
  DART Hazard Call: Toxic

## CC1=C(/C=C/C(C)=C/C=C/C(C)=C/C(=O)O)C(C)(C)CCC1 [all-tr-Retinoic Acid]
[4]; [15]
  95% percentile (Conc-dose-ratio): 0.00556
  Fold Difference to non-pregnant: 0.55
  Fold Difference to pregnant: 0.71
  Mean Conc-dose -ratio: 0.005 uM/(mg/day]
  TKVF: 1.06
[4]; [16]
  95% percentile (Conc-dose-ratio): 0.00249
  Mean Conc-dose -ratio: 0.0015 uM/(mg/day]
  TKVF: 1.66
[4]; [17]
  95% percentile (Conc-dose-ratio): 0.02
  Fold Difference to non-pregnant: 1.00
  Mean Conc-dose -ratio: 0.010 uM/(mg/day]
  TKVF: 2.14
[4]; [18]
  95% percentile (Conc-dose-ratio): 0.0108
  Fold Difference to non-pregnant: 0.77
  Fold Difference to pregnant: 1.00
  Mean Conc-dose -ratio: 0.007 uM/(mg/day]
  TKVF: 1.47

## CCN(CC)C(=O)c1cccc(C)c1 [DEET]
[4]; in vivo
  95% percentile (Conc-dose-ratio): 0.0013
  Mean Conc-dose -ratio: 0.00066 uM/(mg/day]
  TKVF: 1.97
[5]
  Exposure risk (DART risk classification): Low Risk
[6]
  DART Hazard Call: Uncertain

## Cn1c(=O)c2[nH]cnc2n(C)c1=O [Theophylline]
[4]; female, human, in vivo
  TKVF: 1.73

## C[C@H]1O[C@@H](O[C@H]2[C@@H](O)C[C@H](O[C@H]3[C@@H](O)C[C@H](O[C@H]4CC[C@@]5(C)[C@H](CC[C@@H]6[C@@H]5C[C@@H](O)[C@]5(C)[C@@H](C7=CC(=O)OC7)CC[C@]65O)C4)O[C@@H]3C)O[C@@H]2C)C[C@H](O)[C@@H]1O [Digoxin]
[4]; female, human, in vivo
  TKVF: 2.35
[4]; female, human, in vivo, po
  TKVF: 2.35
[3]
  BER: < 1

## O=C(O)c1ccccc1O [Salicylate]
[4]; [13]
  TKVF: 1.96
[4]; Non-Pregnant, dermal, formulation Sodium salicylate
  TKVF: 1.52
[4]; Non-Pregnant, oral, formulation Acetyl salicylic acid
  TKVF: 1.96
[4]; Non-Pregnant, oral, formulation Sodium salicylate
  TKVF: 1.06
[4]; [19]
  TKVF: 2.34
[4]; Pregnant, oral, formulation Acetyl salicylic acid
  TKVF: 2.34
[7]
  MoS: Used safely in cosmetic products. Existent consumer risk assessment from the SCCS. MoS >50

## C[n+]1ccc(-c2cc[n+](C)cc2)cc1 [Paraquat]
[4]; Fetus population
  CDR fold difference to non-pregnant: 0.06
  CDR fold difference to pregnant: 1.15
[4]; Foetus, oral
  Fold Difference to non-pregnant: 0.056
  Fold Difference to pregnant: 1.15
  Mean Conc-dose -ratio: 0.000247 uM/(mg/day]
[4]; [12]
  CDR fold difference to non-pregnant: 1.00
[4]; [13]
  TKVF: 3.16
[4]; Non-Pregnant, oral
  95% percentile (Conc-dose-ratio): 0.014
  Fold Difference to non-pregnant: 1.00
  Mean Conc-dose -ratio: 0.0044 uM/(mg/day]
  TKVF: 3.16
[4]; Pregnant population
  CDR fold difference to non-pregnant: 0.05
[4]; [20]
  CDR fold difference to pregnant: 1.00
[4]; Pregnant, oral
  Fold Difference to non-pregnant: 0.05
  Fold Difference to pregnant: 1.00
  Mean Conc-dose -ratio: 0.000214 uM/(mg/day]
[6]; [11]
  DART Hazard Call: Non Toxic
[7]
  ADI: ADI set by FSCJ (0.0045 mg/kg/day)

## CC1(C)C(C=C(Cl)Cl)C1C(=O)OC(C#N)c1cccc(Oc2ccccc2)c1 (stereo not drawn) [Cypermethrin]
rats; 15-day intact adult male rat assay, decreased body weight gain
  NOAEL: 6 mg/kg bw per day
rats; two multigeneration rat studies, decreased survival of pups at birth
  reproductive NOAEL: 10 mg/kg bw per day
rats; [21]
  offspring NOAEL: 10 mg/kg bw per day
  parental NOAEL: 10 mg/kg bw per day
[8]; DNT study
  developmental NOAEL: 15 mg/kg bw per day

## C[C@@H]1C[C@H]2[C@@H]3CCC4=CC(=O)C=C[C@]4(C)[C@@]3(F)[C@@H](O)C[C@]2(C)[C@@]1(O)C(=O)CO [Dexamethasone]
[4]; female, human, in vivo
  CDR fold difference to non-pregnant: 1.50
  TKVF: 2.51
[4]; human, in vivo
  CDR fold difference to non-pregnant: 1.00
  TKVF: 1.99
[6]; [11]
  DART Hazard Call: Toxic

## CC/C(=C(/CC)c1ccc(O)cc1)c1ccc(O)cc1 [Diethylstilbestrol (DES), Diethylstilbestrol]
[5]; Pharmaceutical, 0.5 mg/daily, oral, ref Supplementary Data Sheet 1
  Exposure risk (DART risk classification): High Risk
[6]; [11]
  DART Hazard Call: Toxic

## C[C@@H]1CCO[C@H]2Cn3cc(C(=O)NCc4ccc(F)cc4F)c(=O)c(O)c3C(=O)N12 [Dolutegravir]
[4]; Fetus population
  CDR fold difference to non-pregnant: 0.46
  CDR fold difference to pregnant: 0.65
[4]; Fetus population, TKVF95 = p95 / weighted mean concentration-dose ratio
  TKVF: 1.40
[4]; Foetus, oral
  95% percentile (Conc-dose-ratio): 0.11
  Fold Difference to non-pregnant: 0.46
  Fold Difference to pregnant: 0.65
  Mean Conc-dose -ratio: 0.08 uM/(mg/day]
  TKVF: 1.40
[4]; [12]
  CDR fold difference to non-pregnant: 1.00
[4]; [13]
  TKVF: 1.87
[4]; Non-Pregnant, oral
  95% percentile (Conc-dose-ratio): 0.33
  Fold Difference to non-pregnant: 1.00
  Mean Conc-dose -ratio: 0.18 uM/(mg/day]
  TKVF: 1.87
[4]; Pregnant population
  CDR fold difference to non-pregnant: 0.70
[4]; [20]
  CDR fold difference to pregnant: 1.00
[4]; [19]
  TKVF: 2.64
[4]; Pregnant, oral
  95% percentile (Conc-dose-ratio): 0.33
  Fold Difference to non-pregnant: 0.70
  Fold Difference to pregnant: 1.00
  Mean Conc-dose -ratio: 0.12 uM/(mg/day]
  TKVF: 2.64
[5]; Pharmaceutical, 50 mg/daily, oral, ref Supplementary Data Sheet 1
  Exposure risk (DART risk classification): High Risk
[6]; [11]
  DART Hazard Call: Toxic

## O=S(=O)(O)NC1CCCCC1 [Cyclamate]
[5]; Dietary, 420 mg/daily, oral, ref Supplementary Data Sheet 1
  Exposure risk (DART risk classification): Low Risk
[9]; median, ref [5],[8]
  Aqueous Solubility: 84.5 mg/mL
[7]
  ADI: ADI set by SCF (7mg/kg/day)

## Nc1ccc(NCCO)c([N+](=O)[O-])c1 [HC Red 3]
[10]
  Intrinsic Liver Clearance: 248.1 L/h
[1]; optimised based on [11]
  Diffusivity Dermis: 1.00E-08 cm^2/s
  Diffusivity Stratum Corneum: 1.00E-08 cm^2/s
  Diffusivity Vehicle: 1.00E-05 cm^2/s
  Diffusivity Viable Epidermis: 1.00E-10 cm^2/s
  Partition Coefficient Stratum Corneum/Water: 1.50
[5]
  Exposure risk (DART risk classification): Low Risk
[6]
  DART Hazard Call: Non Toxic
[8]
  NOAEL for maternal toxicity: 200 mg/kg/day
[2]
  Renal Clearance: 4.496 L/h

## Cn1c(=O)c2c(ncn2C)n(C)c1=O [Caffeine]
[4]; female, human, in vivo
  TKVF: 2.42
[4]; female, human, in vivo, po
  TKVF: 2.42
[4]; human, in vivo, po
  TKVF: 2.84

## CCCCCCC(O)CO (stereo not drawn) [1,2-Octanediol]
[5]; Cosmetic, 5% in body lotion, dermal, ref Supplementary Data Sheet 1
  Exposure risk (DART risk classification): Low Risk
[6]; [11]
  DART Hazard Call: Non Toxic
[2]
  Renal Clearance: 5.129 L/h

## O=CCCCC=O [Glutaraldehyde]
[1]; optimised based on [10]
  Diffusivity Dermis: 1.00E-07 cm^2/s
  Diffusivity Stratum Corneum: 1.00E-09 cm^2/s
  Diffusivity Viable Epidermis: 5.00E-08 cm^2/s
  Partition Coefficient Stratum Corneum/Water: 2.30
  Partition Coefficient Viable Epidermis/Water: 3.00
[5]; Cosmetic, 0.1% in body lotion, dermal, ref Supplementary Data Sheet 1
  Exposure risk (DART risk classification): Low Risk
[6]; [11]
  DART Hazard Call: Non Toxic
[9]; ref [7]
  Aqueous Solubility: 167.2 mg/mL
[7]; ref EPA
  Chronic Dietary RfD: Chronic Dietary RfD set by EPA (0.16 mg/kg/day)
rats; two developmental toxicity studies in the rat
  highest dose tested without evidence of developmental toxicity: 50 mg/kg/day and 68 mg/kg/day
[2]
  Renal Clearance: 6.185 L/h
